Measured values as given in patent US10544140B2, “Pharmaceutical composition containing, as active ingredient, 7-azaindolin-2-one derivative or pharmaceutically acceptable salt thereof” (LG CHEM, LTD., priority 2015, dated 2020).

Assays:
[1] = system: MCF-7 (human breast cancer cell line); assay: Cytotoxicity test by MTT assay, MCF-7; assay type: cell-based; conditions: for cytotoxicity at 30 µM / IC50: Homo sapiens, MCF7; for cytotoxicity at 30 µM: MCF-7, 30 μM, 48 h, read-out: Cell viability (% inhibition); for IC50: MCF-7, 48 h; for cytotoxicity compared with the reference drug sunitinib: MCF-7
Protocol: (§1) A cytotoxicity test was measured by MTT assay. Each cell line was cultured in a 96-well plate at a density of 1×10^4 cells/well. […] MTT (3-(4,5-dimethylthiazol-2-yl)-2,5-diphenyltetrazolium bromide) solution (5 mg/mL) was added to each well and reacted for 4 hours in an incubator. […] After reacting in an incubator for 30 minutes, the formation of formazan was quantified using a microplate reader at an absorbance of 540 nm. […] At this time, sunitinib was used as a control group. […] The human cancer cell lines used herein are MCF-7 (breast cancer), MDA-MB-231 (breast cancer), HT-29 (colon cancer), DU145 (prostate cancer), U937 (myeloid leukemia), A549 (lung cancer), PANC-1 (pancreatic cancer) and MIA PaCa-2 (pancreatic cancer).

[2] = system: PANC-1 (human pancreatic cancer cell line); assay: Cytotoxicity test by MTT assay, PANC-1; assay type: cell-based; conditions: for IC50 / cytotoxicity at 30 µM: Homo sapiens; for IC50: PANC-1, 48 h; for cytotoxicity at 30 µM: PANC-1, 30 μM, 48 h, read-out: Cell viability (% inhibition)
Protocol: as §1

[3] = system: MDA-MB-231 (breast cancer); assay: Cytotoxicity test by MTT assay, MDA-MB-231; assay type: cell-based, human; conditions: for IC50: Homo sapiens, MBA-MB-231, 48 h
Protocol: (§2) A cytotoxicity test was measured by MTT assay. Each cell line was cultured in a 96-well plate at a density of 1×10^4 cells/well. After 24 hours, the culture medium containing 1% FBS (fetal bovine serum) was treated and reacted with compounds or solutions of compounds for 48 hours. MTT (3-(4,5-dimethylthiazol-2-yl)-2,5-diphenyltetrazolium bromide) solution (5 mg/mL) was added to each well and reacted for 4 hours in an incubator. […] After reacting in an incubator for 30 minutes, the formation of formazan was quantified using a microplate reader at an absorbance of 540 nm. […] The human cancer cell lines used herein are MCF-7 (breast cancer), MDA-MB-231 (breast cancer), HT-29 (colon cancer), DU145 (prostate cancer), U937 (myeloid leukemia), A549 (lung cancer), PANC-1 (pancreatic cancer) and MIA PaCa-2 (pancreatic cancer).

HT-29 (colon cancer) = assay: Cytotoxicity test by MTT assay, HT-29; assay type: cell-based, human; conditions: for IC50: Homo sapiens, HT-29, 48 h; for cytotoxicity compared with the reference drug sunitinib: HT-29
Protocol: as §2

DU145 (prostate cancer) = assay: Cytotoxicity test by MTT assay, DU145; assay type: cell-based, human; conditions: DU-145; for IC50: Homo sapiens, DU145, 48 h
Protocol: as §2

A549 (lung cancer) = assay: Cytotoxicity test by MTT assay, A549; assay type: cell-based, human; conditions: for IC50: Homo sapiens, A549, 48 h; for cytotoxicity compared with the reference drug sunitinib: A-549
Protocol: as §2

[4] = system: MIA PaCa-2 (pancreatic cancer); assay: Cytotoxicity test by MTT assay, MIA PaCa-2; assay type: cell-based, human; conditions: for IC50: Homo sapiens, MIA PaCa-2, 48 h
Protocol: as §2

[5] = Cytotoxicity test by MTT assay, HEK293 normal cell line; assay type: cell-based; conditions: human, HEK293 cells (normal cell line)
Protocol: (§3) A cytotoxicity test was measured by MTT assay. Each cell line was cultured in a 96-well plate at a density of 1×10^4 cells/well. After 24 hours, the culture medium containing 1% FBS (fetal bovine serum) was treated and reacted with compounds or solutions of compounds for 48 hours. MTT (3-(4,5-dimethylthiazol-2-yl)-2,5-diphenyltetrazolium bromide) solution (5 mg/mL) was added to each well and reacted for 4 hours in an incubator. […] After reacting in an incubator for 30 minutes, the formation of formazan was quantified using a microplate reader at an absorbance of 540 nm.

[6] = Cytotoxicity test by MTT assay, CHO-K1 normal cell line; assay type: cell-based; conditions: Chinese hamster, CHO-K1 cells (normal cell line)
Protocol: as §3

U937 (myeloid leukemia) = assay: Cytotoxicity test by MTT assay, U937; assay type: cell-based, human; conditions: for IC50: Homo sapiens, U-937, U937, 48 h
Protocol: as §2

Compound | cytotoxicity at 30 µM [1] | IC50 [1] | IC50 [2] | cytotoxicity at 30 µM [2] | cytotoxicity compared with the reference drug sunitinib ([2]; PANC-1) | IC50 [3] | IC50 (HT-29 (colon cancer)) | cytotoxicity compared with the reference drug sunitinib (DU145 (prostate cancer)) | IC50 (DU145 (prostate cancer)) | IC50 (A549 (lung cancer)) | IC50 [4] | IC50 at 48 h [5] | IC50 at 48 h [6] | cytotoxicity compared with the reference drug sunitinib [1] | IC50 (U937 (myeloid leukemia)) | cytotoxicity compared with the reference drug sunitinib [3] | cytotoxicity compared with the reference drug sunitinib ([4]; MIA PaCa-2) | further results
Cc1nc2c(c(C)c1O)/C(=C/c1ccc(N(C)C)cc1)C(=O)N2 [Compound I-18, (Z)-3-(4-(Dimethylamino)benzylidene)-5-hydroxy-4,6-dimethyl-1H-pyrrolo[2,3-b]pyridin-2(3H)-one] | 62.5% | 13.2 µM | 13.8 µM | 66.3% | greater than or equal to that of the reference drug sunitinib | 12.1 µM | 36.3 µM | greater than or equal to that of the reference drug sunitinib | 1.14 µM | 13.2 µM | 11.5 µM | > 90 µM | > 90 µM |  |  |  |  | 
Cc1nc2c(c(C)c1O)/C(=C/C(c1ccccc1)c1ccccc1)C(=O)N2 [Compound I-19, (Z)-3-(2,2-Diphenylethylidene)-5-hydroxy-4,6-dimethyl-1H-pyrrolo[2,3-b]pyridin-2(3H)-one] | 78.1% | 6.37 µM | 7.41 µM | 81.4% | greater than or equal to that of the reference drug sunitinib | 22.9 µM | 11.5 µM |  | 8.77 µM | 31.5 µM |  | 26.2 µM | 30.1 µM | greater than or equal to that of the reference drug sunitinib | 16.6 µM |  |  | 
Cc1nc2c(c(C)c1O)/C(=C/c1cccnc1)C(=O)N2 [Compound I-22, (Z)-5-Hydroxy-4,6-dimethyl-3-(pyridin-3-ylmethylene)-1H-pyrrolo[2,3-b]pyridin-2(3H)-one] | 78% | 17.4 µM |  | 72.7% |  | 9.61 µM | 19.9 µM | greater than or equal to that of the reference drug sunitinib | 1.18 µM | 13.8 µM |  | > 90 µM | 78.5 µM |  | 14.5 µM |  |  | 
CCN(CC)CCNC(=O)c1c(C)[nH]c(/C=C2\C(=O)Nc3nc(C)c(O)c(C)c32)c1C [Compound I-39, (Z)—N-(2-(Diethylamino)ethyl)-5-((5-hydroxy-4,6-dimethyl-2-oxo-1H-pyrrolo[2,3-b]pyridin-3(2H)-ylidene)methyl)-2,4-dimethyl-1H-pyrrole-3-carboxamide] | 62.7% | 6.09 µM | 15.1 µM | 69.6% | greater than or equal to that of the reference drug sunitinib | 5.31 µM | 20.9 µM | greater than or equal to that of the reference drug sunitinib | 2.88 µM | 19.9 µM | 7.94 µM | 40.7 µM | > 90 µM | greater than or equal to that of the reference drug sunitinib | 8.01 µM | greater than or equal to that of the reference drug sunitinib | greater than or equal to that of the reference drug sunitinib | 
CCNCCNC(=O)c1c(C)[nH]c(/C=C2\C(=O)Nc3nc(C)c(O)c(C)c32)c1C [Compound I-40, (Z)—N-(2-(Ethylamino)ethyl)-5-((5-hydroxy-4,6-dimethyl-2-oxo-1H-pyrrolo[2,3-b]pyridin-3(2H)-ylidene)methyl)-2,4-dimethyl-1H-pyrrole-3-carboxamide] |  | 1.32 µM | 1.02 µM |  | greater than or equal to that of the reference drug sunitinib | 1.47 µM | 1.45 µM | greater than or equal to that of the reference drug sunitinib | 0.26 µM | 1.47 µM | 1.58 µM | 19.1 µM | 40.7 µM | greater than or equal to that of the reference drug sunitinib |  | greater than or equal to that of the reference drug sunitinib | greater than or equal to that of the reference drug sunitinib | cytotoxicity compared with the reference drug sunitinib (HT-29 (colon cancer)): greater than or equal to that of the reference drug sunitinib; cytotoxicity compared with the reference drug sunitinib (A549 (lung cancer)): greater than or equal to that of the reference drug sunitinib
Cc1nc2c(c(C)c1O)/C(=C/c1[nH]c(C)c(C(=O)NC3CCCCC3)c1C)C(=O)N2 [Compound I-41, (Z)—N-Cyclohexyl-5-((5-hydroxy-4,6-dimethyl-2-oxo-1H-pyrrolo[2,3-b]pyridin-3(2H)-ylidene)methyl)-2,4-dimethyl-1H-pyrrole-3-carboxamide] | 78.1% | 6.9 µM | 5.88 µM | 78.3% | greater than or equal to that of the reference drug sunitinib | 3.52 µM | 4.47 µM | greater than or equal to that of the reference drug sunitinib | < 1 µM | 6.08 µM | 5.01 µM | 37.1 µM | 43.4 µM | greater than or equal to that of the reference drug sunitinib | 3.21 µM | greater than or equal to that of the reference drug sunitinib | greater than or equal to that of the reference drug sunitinib | cytotoxicity compared with the reference drug sunitinib (HT-29 (colon cancer)): greater than or equal to that of the reference drug sunitinib; cytotoxicity compared with the reference drug sunitinib (U937 (myeloid leukemia); U937): greater than or equal to that of the reference drug sunitinib; cytotoxicity compared with the reference drug sunitinib (A549 (lung cancer)): greater than or equal to that of the reference drug sunitinib
Nc1ccn([C@@H]2O[C@H](CO)[C@@H](O)C2(F)F)c(=O)n1 [Gemcitabine, reference compound] |  |  | > 1000 µM |  |  |  |  |  |  |  | > 1000 µM |  |  |  |  |  |  | resistance of the cell line to the drug ([2]; PANC-1): resistance to gemcitabine; resistance of the cell line to the drug ([4]; MIA PaCa-2): resistance to gemcitabine
CCN(CC)CCNC(=O)c1c(C)[nH]c(/C=C2\C(=O)Nc3ccc(F)cc32)c1C [Sunitinib, sunitinib, reference compound] |  |  |  |  |  | 6.09 µM | 4.89 µM |  | 5.88 µM | 6.98 µM | 8.51 µM | 7.3 µM |  |  | 6.98 µM |  |  | 
